# Reference: patent US7622447B2, “Use of glutathione synthesis stimulating compounds in reducing insulin resistance” (DiaMedica Inc., priority 2002, dated 2009)
# “And” between values parts separate entries of the source, which are not always exact repeats. Equal entries are not always repeated. “Also recorded” adds a separate entry of the source.
# Columns and labels:
# hepatic GSH = experiment: Hepatic GSH content by GSH peroxidase-reductase assay; assay type: in vivo, rat
# Procedure: Summary: GSH depletion was induced in 5 week old Wistar rats using buthionine sulfoximine (BS), 2 mmol/kg bw, i.p. for 20 days. Control rats were injected with an equal volume of saline. Insulin sensitivity was measured using a euglycemic clamp, the Rapid Insulin Sensitivity Test-RIST. In both the saline group (SG) and BSO group (BG) a control RIST followed by a RIST post-[…] NOS competitive antagonist, and a RIST post-SIN-1 (5 mg/kg i.p.v.), a NO donor, were performed. The liver was removed for further determined of hepatic GSH content using the GSH peroxidase-reductase assay. […] The control RIST, 248.0±15.8 mg glucose/kg for SG, was impaired in the BG (158.4±12.2 mg glucose/kg; p<0.01). After L-NAME the SG RIST was 129.0±1.9 mg glucose/kg and the BG RIST was 109.0±9.1 mg glucose/kg. […] HISS action, quantified by subtracting the post L-NAME RIST from the control RIST, was 114.0±15.8 mg glucose/kg for SG and only 49.3±8.6 mg glucose/kg for BG (p<0.01). HISS dependent insulin resistance appears to be related to impaired levels of GSH in the liver, leading to a compromised HISS secretion/release. […] CONTENT: […] Hepatic GSH content was decreased in 48.3±6.9% in BSO group. ***=p<0.001.
# Wistar rats = experiment: Rapid Insulin Sensitivity Test (RIST), euglycemic clamp, in saline and BSO (GSH-depleted) rats; assay type: in vivo, rat
# Excerpt: The rapid insulin sensitivity test (RIST) was employed (Lautt et al., Can. J. Physiol. Pharmacol. 76:1080 (1998)) is employed to avoid the complexity of the reaction to hypoglycemia. The RIST involves use of a euglycemic clamp following the administration of insulin and quantitation of the response as the amount of glucose required to be infused over the test period in order to hold arterial blood glucose levels constant. […] It is highly reproducible with up to five consecutive responses being obtainable in cats and four in rats with blood glucose levels returning to control levels between each test. Insulin, glucagon, and catecholamine levels remain unchanged between tests.
# Summary: GSH depletion was induced in 5 week old Wistar rats using buthionine sulfoximine (BS), 2 mmol/kg bw, i.p. for 20 days. Control rats were injected with an equal volume of saline. Insulin sensitivity was measured using a euglycemic clamp, the Rapid Insulin Sensitivity Test—RIST. In both the saline group (SG) and BSO group (BG) a control RIST followed by a RIST post-L-NAME (1 mg/kg i.p.v.), a NOS competitive antagonist, and a RIST post-SIN-1 (5 mg/kg i.p.v.), a NO donor, were performed. The liver was removed for further determined of hepatic GSH content using the GSH peroxidase-reductase assay. […] The control RIST, 248.0±15.8 mg glucose/kg for SG, was impaired in the BG (158.4±12.2 mg glucose/kg; p<0.01). After L-NAME the SG RIST was 129.0±1.9 mg glucose/kg and the BG RIST was 109.0±9.1 mg glucose/kg. […] HISS action, quantified by subtracting the post L-NAME RIST from the control RIST, was 114.0±15.8 mg glucose/kg for SG and only 49.3±8.6 mg glucose/kg for BG (p<0.01). HISS dependent insulin resistance appears to be related to impaired levels of GSH in the liver, leading to a compromised HISS secretion/release.
# Male Wistar rats (8 weeks) were anaesthetized with sodium pentobaribtial (65 mg/kg). Body temperature was maintained at 37±0.5 °C. An arterial-venous loop (carotid artery and internal jugular vein) was employed. A catheter was inserted into the portal vein.
# RIST (Rapid Insulin Sensitivity Test): Blood samples (25 μl) for arterial glucose analysis were taken from the arterial-venous loop. A stable glucose baseline was established. Insulin (50 mU/kg i.v.) was infused over 5 minutes. Arterial blood samples were taken every 2 minutes. Glucose was adjusted to maintain euglycemia. RIST index=mg glucose/kg infused during RIST.
# fasting-induced HDIR = experiment: Fasting-induced HISS-dependent insulin resistance (HDIR) model, overnight fast; assay type: in vivo
# Excerpt: A model of low hepatic GSH and NO production is produced by overnight fasting.
# hepatic glutathione = conditions: cited from earlier work
# HISS = HISS action after NOS blockade; assay type: in vivo
# cats = conditions: cited from earlier work
compound,measurement,setting,value
"CCCCS(=N)(=O)CCC(N)C(=O)O (centres unmarked) [BSO, buthionine sulfoximine]",reduction in hepatic GSH content,hepatic GSH; BSO group compared to saline/control group,48.3±6.9%
same,hepatic GSH content,"hepatic GSH; BSO group, BSO 2 mmol/kg bw i.p. for 20 days",2.96±0.4 μmol/g fresh liver
same,control RIST index in BSO group,"Wistar rats; BSO 2 mmol/kg bw i.p. for 20 days, before L-NAME",158.4±12.2 mg glucose/kg
same,decrease of HISS action,Wistar rats; BSO group compared to control group,64.4%
same,HISS-independent component of insulin action,Wistar rats; BSO group versus control group,not different
same,HISS action (HISS-dependent component of insulin action),"Wistar rats; BSO group, control RIST minus post L-NAME RIST",49.3±8.6 mg glucose/kg and 49.3±8.56 mg glucose/kg
"N[C@@H](CCC(=O)N[C@@H](CS)C(=O)NCC(=O)O)C(=O)O [GSH, glutathione]",reversal of HDIR / reduction in insulin resistance by GSH alone,fasting-induced HDIR; GSH by itself,small but significant reduction in insulin resistance; also recorded: minor reversal of HDIR
same,insulin sensitivity / reversal of HDIR by GSH together with NO donor,fasting-induced HDIR; GSH plus NO / NO donor,Improved insulin sensitivity; also recorded: only becomes therapeutically significant after the addition of the NO donor
COC(=O)[C@@H](N)CCCNC(=N)N[N+](=O)[O-] [L-NAME],RIST index post-L-NAME in BSO group,"Wistar rats; BSO-treated rats, L-NAME 1 mg/kg intraportal",109.0±9.1 mg glucose/kg and 109.8±9.1 mg glucose/kg
same,inhibition of RIST index by L-NAME,"Wistar rats; control group, L-NAME 1 mg/kg i.p.v.",52.3±5.8%
"C[S+](CC[C@H](N)C(=O)O)C[C@H]1O[C@@H](n2cnc3c(N)ncnc32)[C@H](O)[C@@H]1O (some centres unmarked) [SAMe, S-adenosylmethionine]",time of peak glutathione levels,hepatic glutathione; after oral administration of SAMe,3 to 6 h
same,intrahepatic glutathione after SAMe administration,hepatic glutathione; in vivo,restored to near-normal levels
"[NH-]c1c[n+](N2CCOCC2)no1 [SIN-1, 3-morpholinosyndnonimine]",HISS action after NOS blockade,HISS,reverses HISS inhibition after NOS blockade
same,reversal of fasting induced HDIR by SIN-1 alone,"fasting-induced HDIR; SIN-1 2.5 to 10 mg/kg i.p.v., overnight fast",do not reverse fasting induced HDIR
same,restoration of RIST index / insulin action by SIN-1 in BSO group,"Wistar rats; BSO-treated rats, SIN-1 5 mg/kg i.p.v. after L-NAME, 5 mg/kg",only restored insulin action in the SG; also recorded: did not reverse the RIST index to control values
same,RIST index post-SIN-1,"Wistar rats; saline/control group, SIN-1 5 mg/kg i.p.v. after L-NAME, 5 mg/kg",246.0±11.5 mg glucose/kg and 258.1±18.5 mg glucose/kg
CN1[C@@H]2CC[C@H]1C[C@@H](OC(=O)C(CO)c1ccccc1)C2 (some centres unmarked) [atropine],hepatic glucose response,cats; arterial-venous glucose response to bolus insulin after atropine,not notably altered
COc1ccccc1CNCCCCCCNCCCCCCCCNCCCCCCNCc1ccccc1OC [methoctramine],dose producing full / similar degree of insulin resistance,cats,10^−6 μmol/kg
CN1CCN(CC(=O)N2c3ccccc3C(=O)Nc3cccnc32)CC1 [pirenzepine],dose producing a similar degree of insulin resistance,cats,10^−7 mmol/kg
Nitroprusside,HISS action after NOS blockade,HISS,not able to restore HISS action after NOS blockade
